Experimental data taken from PMC7496508, “Modular Medical Imaging Agents Based on Azide–Alkyne Huisgen Cycloadditions: Synthesis and Pre‐Clinical Evaluation of ^18F‐Labeled PSMA‐Tracers for Prostate Cancer Imaging” (Chemistry (Weinheim an Der Bergstrasse, Germany), 2020).
Where “and” joins values, the source holds several entries; their conditions need not be identical. Equal entries are not always repeated.

Tests used:
Assay type in all cases: in vivo, Balb/c nude mice
PC3 (PSMA-) xenografts = assay: PET image quantification of organ distribution (SUVmeanBW), PC3 xenograft mice
Method: (§1) The in vivo imaging potential of [^18F]PSMA‐MIC01 was evaluated using a murine animal model (see Supporting Information for experimental details).65 This was performed in a procedure that involved the study of the tumor uptake, binding specificity and comparison to [^68Ga]PSMA‐11. Tumor uptake of [^18F]PSMA‐MIC01 was assessed by performing a 90 min dynamic PET scan.
(§2) The animal experiments were all performed according to the ethical guidelines and approved by the local animal welfare committee of the University of Groningen (IvD number 15166-06-001. All animals were caged separately in individually ventilated cages.
(§3) 7-12 week old immune deficient Balb/c nude mice were inoculated with 200 µL of a 1:1 suspension of medium containing approximately 4 x10^6 LNCaP cells (PSMA positive cells) or 5 x 10^6 PC3 cells (PSMA-negative cells) in RPMI-1640, and Matrigel Basement Membrane Matrix High concentration. The cells were subcutaneously inoculated on the right shoulder.
(§4) After 3 to 5 weeks for LNCaP-xenografts, 2-3 weeks for PC3-xenografts or when a tumor size of 1cm3 was reached, the animals were transported to the PET imaging facility. For the […]
(§5) prepared and 100 µL were injected via penile vein injection 30 min prior to the tracer injection. Animals were anesthetized at 5 % isoflurane and maintained under 2 % isoflurane enriched with O2. The dynamic PET scan was started within 5 min after tracer injection with an acquisition time of 90 min. The static scan was performed 60 min after tracer injection with an acquisition time of 30 min. […]
(§6) In order to check for the significant differences, we also checked for the Cohen’s d, a measurement to determine the effect size. It is calculated on the following formula:
(§7) Cohen′sD = Mean1− Mean2 . […]

LNCaP (PSMA+) xenografts [1] = assay: PET image quantification of organ distribution (SUVmeanBW), LNCaP xenograft mice
Method: as §1, §2, §3, §4, §5, §6, §7

[2] = metabolite analysis of plasma and urine by TLC; conditions: PC3- or LNCaP-xenograft animals
Source text: (§8) 7.2. Organ distribution and Metabolite analysis.
After sacrificing the animals, the organs were dissected and measured in a γ-counter. The obtained CPM’s were normalized to %ID/g (Table shown in main text). For the metabolite analysis, urine and plasma samples were pipetted onto a TLC plate and run in a solution of 10 % MeCN in H2O and read out in an Amersham Typhoon (GE).Additionally to […]
metabolite analysis of two article, the image quantification based on the standardized different animals bearing a uptake value (SUV ) was performed. The obtained data PC3- or a LNCaP-xenograft. meanBW While in Plasma, no are represented in the following Table S6. Here, we show the metabolite were formed, the […]
results obtained by image quantification of the 4 different conclusive. groups. Comparison of tumor uptake in PSMA-expressing
LNCaP xenografts of (1) [68Ga]PSMA-11 and (2) [18F]PSMA-MIC01 (the same animals). (3) the PSMA-negative PC3 xenograft. (4) Confirmation of binding specificity of radiotracer [18F]PSMA-MIC01, by blocking PSMA in LNCaP-xenografts prior to radiotracer injection] using the potent PSMA-inhibitor 2-PMPA.
as §6, §7
(1 picture or pasted object on this page, not shown here)

LNCaP (PSMA+) xenografts [3] = assay: ex vivo organ distribution, LNCaP xenograft mice
Method: All groups were evaluated by visual assessment of the PET image and the percentage injected dose per gram (%ID g^−1).
as §2, §3, §4
prepared and 100 µL were injected via penile vein injection 30 min prior to the tracer injection. Animals were anesthetized at 5 % isoflurane and maintained under 2 % isoflurane enriched with O2. The dynamic PET scan was started within 5 min after tracer injection with an acquisition time of 90 min. The static scan was performed 60 min after tracer injection with an acquisition time of 30 min.
as §8
After sacrificing the animals, the organs were dissected and measured in a γ-counter. The obtained CPM’s were normalized to %ID/g (Table shown in main text). […]
as §6, §7

[4] = LNCaP-blocked (PSMA+), 2-PMPA prior to tracer
[5] = LNCaP (PSMA+) xenograft blocked with 2-PMPA 30 min prior to tracer
[6] = LNCaP (PSMA+) xenograft, dissected after PET scan

SMILES: O=C(O)CC[C@H](NC(=O)N[C@@H](CCCCNC(=O)c1ccc(-c2cn(CCOCCOCC[18F])nn2)cc1)C(=O)O)C(=O)O [[^18F]PSMA‐MIC01]
- SUVmeanBW Bladder (PC3 (PSMA-) xenografts): 3.9 ± 0.4
- SUVmeanBW Brain (PC3 (PSMA-) xenografts): 0.2 ± 0.1
- SUVmeanBW Heart (PC3 (PSMA-) xenografts): 0.7 ± 0.2
- SUVmeanBW Kidney (PC3 (PSMA-) xenografts): 5.1 ± 1.9
- SUVmeanBW Liver (PC3 (PSMA-) xenografts): 1.5 ± 0.5
- SUVmeanBW Muscle (PC3 (PSMA-) xenografts): 0.3 ± 0.1
- SUVmeanBW Tumor (PC3 (PSMA-) xenografts): 0.4 ± 0.2
- SUVmeanBW Bladder (LNCaP (PSMA+) xenografts [1]; LNCaP (PSMA+) xenograft): 10.2 ± 6.7
- SUVmeanBW Brain (LNCaP (PSMA+) xenografts [1]; LNCaP (PSMA+) xenograft): 0.2 ± 0.1
- SUVmeanBW Heart (LNCaP (PSMA+) xenografts [1]; LNCaP (PSMA+) xenograft): 0.4 ± 0.2
- SUVmeanBW Kidney (LNCaP (PSMA+) xenografts [1]; LNCaP (PSMA+) xenograft): 4.4 ± 1.4
- SUVmeanBW Liver (LNCaP (PSMA+) xenografts [1]; LNCaP (PSMA+) xenograft): 0.8 ± 0.2
- SUVmeanBW Muscle (LNCaP (PSMA+) xenografts [1]; LNCaP (PSMA+) xenograft): 0.2 ± 0.1
- SUVmeanBW Tumor (LNCaP (PSMA+) xenografts [1]; LNCaP (PSMA+) xenograft): 0.6 ± 0.4
- SUVmeanBW Bladder (LNCaP (PSMA+) xenografts [1]; [4]): 20.7 ± 12.4
- SUVmeanBW Brain (LNCaP (PSMA+) xenografts [1]; [4]): 0.1 ± 0.0
- SUVmeanBW Heart (LNCaP (PSMA+) xenografts [1]; [4]): 0.4 ± 0.1
- SUVmeanBW Kidney (LNCaP (PSMA+) xenografts [1]; [4]): 2.6 ± 1.7
- SUVmeanBW Liver (LNCaP (PSMA+) xenografts [1]; [4]): 0.8 ± 0.4
- SUVmeanBW Muscle (LNCaP (PSMA+) xenografts [1]; [4]): 0.2 ± 0.1
- SUVmeanBW Tumor (LNCaP (PSMA+) xenografts [1]; [4]): 0.3 ± 0.1
- metabolites in plasma [2]: no
- ex vivo uptake bone (LNCaP (PSMA+) xenografts [3]; [5]): 0.3±0.1 %ID g^−1
- ex vivo uptake brain (LNCaP (PSMA+) xenografts [3]; [5]): 0.1±0.0 %ID g^−1
- ex vivo uptake heart (LNCaP (PSMA+) xenografts [3]; [5]): 0.7±0.5 %ID g^−1
- ex vivo uptake kidney (LNCaP (PSMA+) xenografts [3]; [5]): 28.5±20.7 %ID g^−1
- ex vivo uptake large intestine (LNCaP (PSMA+) xenografts [3]; [5]): 0.9±0.3 %ID g^−1
- ex vivo uptake liver (LNCaP (PSMA+) xenografts [3]; [5]): 5.7±1.4 %ID g^−1
- ex vivo uptake lungs (LNCaP (PSMA+) xenografts [3]; [5]): 1.1±0.3 %ID g^−1
- ex vivo uptake muscles (LNCaP (PSMA+) xenografts [3]; [5]): 0.3±0.1 %ID g^−1
- ex vivo uptake pancreas (LNCaP (PSMA+) xenografts [3]; [5]): 0.5±0.2 %ID g^−1
- ex vivo uptake plasma (LNCaP (PSMA+) xenografts [3]; [5]): 3.8±1.3 %ID g^−1
- ex vivo uptake salivary glands (LNCaP (PSMA+) xenografts [3]; [5]): 1.0±0.8 %ID g^−1
- ex vivo uptake small intestine (LNCaP (PSMA+) xenografts [3]; [5]): 1.2±1.5 %ID g^−1
- ex vivo uptake spleen (LNCaP (PSMA+) xenografts [3]; [5]): 1.0±0.2 %ID g^−1
- ex vivo uptake stomach (LNCaP (PSMA+) xenografts [3]; [5]): 7.3±16.4 %ID g^−1
- ex vivo uptake tumor (LNCaP (PSMA+) xenografts [3]; [5]): 2.8±0.8 %ID g^−1
- ex vivo uptake urine (LNCaP (PSMA+) xenografts [3]; [5]): 644±627 %ID g^−1
- ex vivo uptake whole blood (LNCaP (PSMA+) xenografts [3]; [5]): 1.8±0.6 %ID g^−1
- ex vivo uptake bone (LNCaP (PSMA+) xenografts [3]; [6]): 0.2±0.1 %ID g^−1
- ex vivo uptake brain (LNCaP (PSMA+) xenografts [3]; [6]): 0.1±0.0 %ID g^−1
- ex vivo uptake heart (LNCaP (PSMA+) xenografts [3]; [6]): 0.6±0.4 %ID g^−1
- ex vivo uptake kidney (LNCaP (PSMA+) xenografts [3]; [6]): 42.0±9.0 %ID g^−1
- ex vivo uptake large intestine (LNCaP (PSMA+) xenografts [3]; [6]): 1.4±1.5 %ID g^−1
- ex vivo uptake liver (LNCaP (PSMA+) xenografts [3]; [6]): 5.6±1.3 %ID g^−1
- ex vivo uptake lungs (LNCaP (PSMA+) xenografts [3]; [6]): 1.3±0.5 %ID g^−1
- ex vivo uptake muscles (LNCaP (PSMA+) xenografts [3]; [6]): 0.5±0.2 %ID g^−1
- ex vivo uptake pancreas (LNCaP (PSMA+) xenografts [3]; [6]): 0.8±0.7 %ID g^−1
- ex vivo uptake plasma (LNCaP (PSMA+) xenografts [3]; [6]): 0.9±5.2 %ID g^−1
- ex vivo uptake salivary glands (LNCaP (PSMA+) xenografts [3]; [6]): 0.5±0.3 %ID g^−1
- ex vivo uptake small intestine (LNCaP (PSMA+) xenografts [3]; [6]): 1.6±2.1 %ID g^−1
- ex vivo uptake spleen (LNCaP (PSMA+) xenografts [3]; [6]): 5.8±3.4 %ID g^−1
- ex vivo uptake stomach (LNCaP (PSMA+) xenografts [3]; [6]): 0.6±0.2 %ID g^−1
- ex vivo uptake tumor (LNCaP (PSMA+) xenografts [3]; [6]): 11.8±4.2 %ID g^−1 and 11.7±4.2 %ID g^−1
- ex vivo uptake urine (LNCaP (PSMA+) xenografts [3]; [6]): 314±420 %ID g^−1
- ex vivo uptake whole blood (LNCaP (PSMA+) xenografts [3]; [6]): 1.6±1.3 %ID g^−1
